Laboratory results taken from patent US12612371B2, “Sigma-1 receptor ligands and therapeutic uses thereof” (UNIVERSITE DE STRASBOURG, priority 2019, dated 2026).

Target: T1, sigma 1 (h) (Homo sapiens, UniProt Q99720)
T1 construct: incubating Jurkat cell membranes (10-20 mg protein per tube) with [^3H](+) pentazocine; endogenous in cells; host or cells: Jurkat cell membranes
Experiment: σ1 binding assay ([3H](+)pentazocine displacement, Jurkat cell membranes)
Details: compound at 10 nM, [3H](+)pentazocine 15 nM, 37° C., 2 hours, read-out: Sigma-1 receptor % inhibition 10 nM
Experimental: The σ1 binding assays were performed according to Ganapathy et al (Ganapathy, M. E. et al. (1999), J. Pharmacol. Exp. Ther., 28:251-260). The σ1 binding assay was carried out by incubating Jurkat cell membranes (10-20 mg protein per tube) with [^3H](+) pentazocine a selective S1R ligand (15 nM) and a range of concentration of tested compounds, at 37° C. for 2 hours in 5 mM tris/HCl buffer (pH=7.4). The inhibition of [3H]-(+)-pentazocine binding assay is mainly used to determine the inhibition constant (Ki) of potential SIR ligands. These assays are performed with a single concentration of [^3H]-(+)-pentazocine at a concentration near its KD and increasing concentrations of non-radioactive ligands.

T1 sequence (Q99720 whole entry): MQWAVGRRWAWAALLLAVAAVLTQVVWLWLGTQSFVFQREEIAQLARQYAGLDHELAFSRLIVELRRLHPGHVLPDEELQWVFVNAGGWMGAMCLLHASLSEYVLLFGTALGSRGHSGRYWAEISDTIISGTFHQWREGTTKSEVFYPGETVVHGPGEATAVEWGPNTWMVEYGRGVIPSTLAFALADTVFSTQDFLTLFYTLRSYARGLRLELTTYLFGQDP

Compound O=c1c(-c2ccccc2)cncn1CCCCN1CCOCC1 [40b, 3-[4-(morpholin-4-yl)butyl]-5-phenyl-3,4-dihydropyrimidin-4-one] has an inhibition at 0.01 µM of 1.4%.
